The nature of series [1]: Functional Dkk1-LRP5-TCF-Luciferase Assay in U2OS Cells (table columns: A=MAX FOLD Induction/DMSO CONTROL; B=fold induction @ 2.0 uM; C=fold induction @ 20.0 uM). The class given is cell-based, Human. Particulars: Homo sapiens; for fold induction at 2 µM / fold induction at 20 µM: U2OS; for fold induction at 2 µM: 2.0 uM compound; for fold induction at 20 µM: 20.0 uM compound; for EC50: U2OS cells, TCF-luciferase reporter. In a few lines:
(§1)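 U2OS cells co-transfected with 16×TCF-TK-firefly luciferase, TK-Renilla control, Wnt3a and Dkk1, then frozen; thawed cells (~5,000/well, ~5% FBS, phenol red-free RPMI) incubated ~20 h at 37° C. with compound (0.25% DMSO). Firefly luminescence (Bright-Glo) normalized to DMSO mean as fold induction.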

Series [2] concerns canonical Wnt-β-catenin cellular messaging system (16xTCF-TK-FireFly-Luci reporter, Wnt3a and Dkk1 co-transfected U2OS cells). Described as above. Particulars: maximum fold induction over DMSO control. The class given is cell-based, Human. Put shortly:
as §1

The structures appear in SMILES notation.

By fold induction is commonly meant the ratio of treated to control signal. Regarding `c1c[nH]c(-c2nc3cc(-c4ccc5ccccc5c4)cnc3n2C2CCNCC2)c1` [6-(2-naphthyl)-3-piperidin-4-yl-2-(1H-pyrrol-2-yl)-3H-imidazo[4,5-b]pyridine], in series [1], the fold induction at 2 µM amounted to 1.01 and the fold induction at 20 µM came out at 1.99. The “A = MAX FOLD Induction/DMSO CONTROL” value in series [2] is 1.580.

On to `COc1ncccc1-c1nc2cc(-c3ccc4ccccc4c3)cnc2n1C1CCNCC1` [2-(2-methoxypyridin-3-yl)-6-(2-naphthyl)-3-piperidin-4-yl-3H-imidazo[4,5-b]pyridine], for which, in series [1], the fold induction at 2 µM was 2.06 and the fold induction at 20 µM was 0.02. Further, the “A = MAX FOLD Induction/DMSO CONTROL” value in series [2] came out at 2.030.

As usually defined, the EC50 is the concentration at which the effect is half-maximal. Lower therefore signals a more potent agent. Compound `c1ccc2cc(-c3cnc4c(c3)nc(-c3ccc5c(c3)OCO5)n4C3CCNCC3)ccc2c1` [2-(1,3-benzodioxol-5-yl)-6-(2-naphthyl)-3-piperidin-4-yl-3H-imidazo[4,5-b]pyridine] gave an EC50 in series [1] of 737 nM. Further, in series [2], the “A = MAX FOLD Induction/DMSO CONTROL” value is given as 1.860.

As to `c1cncc(-c2nc3cc(-c4ccc5ccccc5c4)cnc3n2C2CCNCC2)c1` [6-(2-naphthyl)-3-piperidin-4-yl-2-pyridin-3-yl-3H-imidazo[4,5-b]pyridine], in series [1], the fold induction at 2 µM was found to be 1.75 and the fold induction at 20 µM came out at 0.005. Also, the “A = MAX FOLD Induction/DMSO CONTROL” value in series [2] is on record as 1.100.

As for `c1ccc2cc(-c3ccnc4c3ncn4[C@H]3CCNC3)ccc2c1` [7-(2-naphthyl)-3-[(3S)-pyrrolidin-3-yl]-3H-imidazo[4,5-b]pyridine], in series [1], the fold induction at 2 µM worked out at 2.1 and the fold induction at 20 µM was found to be 0.44. Further, the “A = MAX FOLD Induction/DMSO CONTROL” value in series [2] is 2.780.

As for `CC(=O)Nc1ccc(-c2nc3c(-c4ccc5ccccc5c4)ccnc3n2C2CCNCC2)cc1` [N-{4-[7-(2-naphthyl)-3-piperidin-4-yl-3H-imidazo[4,5-b]pyridin-2-yl]phenyl}acetamide], the fold induction at 2 µM in series [1] is 1.99. In series [2], the “A = MAX FOLD Induction/DMSO CONTROL” value is reported as 1.710.

Consider `c1ccc2cc(-c3ccnc4c3ncn4[C@@H]3CCCNC3)ccc2c1` [7-(2-naphthyl)-3-[(3R)-piperidin-3-yl]-3H-imidazo[4,5-b]pyridine], for which, in series [1], the fold induction at 2 µM was determined as 3.48, the fold induction at 20 µM amounted to 1.4 and a half-maximal effect (EC50) was put at 963 nM. The “A = MAX FOLD Induction/DMSO CONTROL” value in series [2] was 3.820.

`c1ccc2cc(-c3ccnc4c3ncn4C3CCNCC3)ccc2c1` [7-(2-naphthyl)-3-piperidin-4-yl-3H-imidazo[4,5-b]pyridine]: in series [1], the fold induction at 2 µM stood at 5.4, the fold induction at 20 µM came out at 0.063 and it took 725 nM to reach a half-maximal effect (EC50). Besides, the “A = MAX FOLD Induction/DMSO CONTROL” value in series [2] worked out at 3.881.

On to `c1ccc2cc(-c3ccnc4c3nc(-c3ccncc3)n4C3CCNCC3)ccc2c1` [7-(2-naphthyl)-3-piperidin-4-yl-2-pyridin-4-yl-3H-imidazo[4,5-b]pyridine], for which, in series [1], the fold induction at 2 µM came to 1.89 and the fold induction at 20 µM came to 2.27. For the same compound, the “A = MAX FOLD Induction/DMSO CONTROL” value in series [2] was 1.650.

On to `c1ccc2cc(-c3ccnc4c3ncn4[C@H]3CCCNC3)ccc2c1` [7-(2-naphthyl)-3-[(3S)-piperidin-3-yl]-3H-imidazo[4,5-b]pyridine], for which, in series [1], the fold induction at 2 µM is 1.02, the fold induction at 20 µM was 0.01 and the EC50 is 18 nM. The “A = MAX FOLD Induction/DMSO CONTROL” value in series [2] is reported as 2.303.

On to `c1ccc2cc(-c3ccnc4c3ncn4CCCn3ccnc3)ccc2c1` [3-[3-(1H-imidazol-1-yl)propyl]-7-(2-naphthyl)-3H-imidazo[4,5-b]pyridine], for which, in series [1], the fold induction at 2 µM turned out to be 1.76, the fold induction at 20 µM worked out at 3.31 and a half-maximal effect (EC50) was put at 10200 nM. In addition, in series [2], the “A = MAX FOLD Induction/DMSO CONTROL” value is reported as 2.870.

Take `CN(C)C(=O)N1CCC(n2cnc3c(-c4ccc5ccccc5c4)ccnc32)CC1` [N,N-dimethyl-4-[7-(2-naphthyl)-3H-imidazo[4,5-b]pyridin-3-yl]piperidine-1-carboxamide]: in series [1], the fold induction at 2 µM was 1.94 and the fold induction at 20 µM amounted to 2.09. The “A = MAX FOLD Induction/DMSO CONTROL” value in series [2] was 1.080.

Consider `Fc1ccc(-c2nc3c(-c4ccc5ccccc5c4)ccnc3n2C2CCNCC2)cc1` [2-(4-fluorophenyl)-7-(2-naphthyl)-3-piperidin-4-yl-3H-imidazo[4,5-b]pyridine], for which, in series [1], the fold induction at 2 µM turned out to be 2.07. The “A = MAX FOLD Induction/DMSO CONTROL” value in series [2] is listed as 1.370.

With `c1ccc2cc(-c3ccnc4c3ncn4CC3CCNCC3)ccc2c1` [7-(2-naphthyl)-3-(piperidin-4-ylmethyl)-3H-imidazo[4,5-b]pyridine], the fold induction at 2 µM in series [1] was determined as 2.72. Besides, in series [2], the “A = MAX FOLD Induction/DMSO CONTROL” value turned out to be 1.930.

Compound `Oc1cccc(-c2nc3cc(-c4ccc5ccccc5c4)cnc3n2C2CCNCC2)c1` [3-[6-(2-naphthyl)-3-piperidin-4-yl-3H-imidazo[4,5-b]pyridin-2-yl]phenol] registered an EC50 in series [1] of 1220 nM. In addition, the “A = MAX FOLD Induction/DMSO CONTROL” value in series [2] was determined as 1.860.

Consider `CS(=O)(=O)N1CCC(n2cnc3c(-c4ccc5ccccc5c4)ccnc32)CC1` [3-[1-(methylsulfonyl)piperidin-4-yl]-7-(2-naphthyl)-3H-imidazo[4,5-b]pyridine], for which, in series [1], the fold induction at 2 µM came to 1.66 and the fold induction at 20 µM is 2.52. Besides, the “A = MAX FOLD Induction/DMSO CONTROL” value in series [2] amounted to 1.230.

Take `Cc1nc2c(-c3ccc4ccccc4c3)ccnc2n1[C@H]1CCCNC1` [2-methyl-7-(2-naphthyl)-3-[(3S)-piperidin-3-yl]-3H-imidazo[4,5-b]pyridine]: in series [1], the fold induction at 2 µM is 2.12 and the fold induction at 20 µM was 0.02. In series [2], the “A = MAX FOLD Induction/DMSO CONTROL” value is listed as 1.910.

These data come from US20090069319A1, “IMIDAZOPYRIDINE ANALOGS AND THEIR USE AS AGONISTS OF THE WNT-BETA-CATENIN CELLULAR MESSAGING SYSTEM” (Wyeth, priority 2007, published 2009).
